Measured values from the supplement of paper PMC11208160.

Experiment: recombinant UMI read abundance after kanamycin selection (control-corrected) (log10(CPM+1)); higher = more efficient recombination; extreme values may be limits of the assay; sequences stand for … in AGTGCAGAGAAAATCGGCCAGTTTTCTCTGCCTGCAGTCCGCATGCCGTGGGACCCCTTGGGTTCTAACCTGTTGCCTAGATTTATGCAGCGGACTGCCTTTCTCCCAAAGTGATAAACCGG…AGGTTGGTTTCACT; site = the 11-nt donor
Experimental: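 Pooled E. coli donor-specificity screen for the IS621 bridge recombinase. Each library member carries a reprogrammed 11-nt donor and a full-length LE bridge RNA expressed in cis from the natural promoter, with a paired donor-binding loop (8-nt LDG + 4-nt RDG) and a target-binding loop fixed to T5. It is co-electroporated with a T5 target plasmid; recombinase is induced with 0.07 mM IPTG and recombinants are selected on kanamycin. UMIs are counted as CPM, averaged over two biological replicates and corrected by the unselected control. Molecule = full bridge RNA written as DNA, built from the T5 scaffold: LDG = donor specificity nt 1-8, RDG = reverse complement of nt 8-11.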
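Also: IS621 bridge recombinase in Escherichia coli cells against a fixed T5 target plasmid.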

| Sequence | recombinant UMI read abundance (log10) |
| --- | --- |
| AATGTGTCATGGACCGGTTTTCCCGGTAATCCGTATTTGAC (site AATGTCTCTGT) | 0 |
| AATGTGTCATGGACCGGTTTTCCCGGTAATCCGTATTTGAC (site AATGTGACTGT) | 0.00331 |
| AATGTGTCATGGACCGGTTTTCCCGGTAATCCGTATTTGAC (site AATGTGCCTGT) | 0 |
| AATGTGTCATGGACCGGTTTTCCCGGTAATCCGTATTTGAC (site AATGTGGCTGT) | 0 |
| AATGTGTCATGGACCGGTTTTCCCGGTAATCCGTATTTGAC (site AATGTGTCTAT) | 0.00893 |
| AATGTGTCATGGACCGGTTTTCCCGGTAATCCGTATTTGAC (site AATGTGTCTCT) | 0.028 |
| AATGTGTCATGGACCGGTTTTCCCGGTAATCCGTATTTGAC (site AATGTGTCTGA) | 0 |
| AATGTGTCATGGACCGGTTTTCCCGGTAATCCGTATTTGAC (site AATGTGTCTGC) | 0 |
| AATGTGTCATGGACCGGTTTTCCCGGTAATCCGTATTTGAC (site AATGTGTCTGG) | 0 |
| AATGTGTCATGGACCGGTTTTCCCGGTAATCCGTATTTGAC (site AATGTGTCTGT) | 1.77 |
| AATGTGTCATGGACCGGTTTTCCCGGTAATCCGTATTTGAC (site AATGTGTCTTT) | 0.181 |
| AATGTGTCATGGACCGGTTTTCCCGGTAATCCGTATTTGAC (site AATGTTTCTGT) | 0 |
| AATGTGTCATGGACCGGTTTTCCCGGTAATCCGTATTTGAC (site AATTTGTCTGT) | 0 |
| AATGTGTCATGGACCGGTTTTCCCGGTAATCCGTATTTGAC (site ACTGTGTCTGT) | 0 |
| AATGTGTCATGGACCGGTTTTCCCGGTAATCCGTATTTGAC (site AGTGTGTCTGT) | 0 |
| AATGTGTCATGGACCGGTTTTCCCGGTAATCCGTATTTGAC (site ATTGTGTCTGT) | 0.71 |
| AATGTGTCATGGACCGGTTTTCCCGGTAATCCGTATTTGAC (site CATGTGTCTGT) | 0.999 |
| AATGTGTCATGGACCGGTTTTCCCGGTAATCCGTATTTGAC (site GATGTGTCTGT) | 0 |

| Sequence | recombinant UMI read abundance (log10) |
| --- | --- |
| AATGTGTCATGGACCGGTTTTCCCGGTAATCCGTATTTGAC (site TATGTGTCTGT) | 1.95 |
| AATGTGTCATGGACCGGTTTTCCCGGTAATCCGTATTTGTC (site AATGTGTCTGA) | 2.97 |
| AATGTGTCATGGACCGGTTTTCCCGGTAATCCGTATTTGTC (site AATGTGTCTGC) | 0.999 |
| AATGTGTCATGGACCGGTTTTCCCGGTAATCCGTATTTGTC (site AATGTGTCTGG) | 1.29 |
| AATGTGTCATGGACCGGTTTTCCCGGTAATCCGTATTTGTC (site AATGTGTCTGT) | 0.364 |
| AATTACGCATGGACCGGTTTTCCCGGTAATCCGTATTTGGA (site AATTAAGCTTC) | 0.428 |
| AATTACGCATGGACCGGTTTTCCCGGTAATCCGTATTTGGA (site AATTACGCTTC) | 0.807 |
| AATTACGCATGGACCGGTTTTCCCGGTAATCCGTATTTGGA (site AATTAGGCTTC) | 0.158 |
| AATTACGCATGGACCGGTTTTCCCGGTAATCCGTATTTGGA (site AATTATGCTTC) | 0.344 |
| AATTATGCATGGACCGGTTTTCCCGGTAATCCGTATTTGCA (site AATTATGCTTA) | 0.00932 |
| AATTATGCATGGACCGGTTTTCCCGGTAATCCGTATTTGCA (site AATTATGCTTC) | 0.00784 |
| AATTATGCATGGACCGGTTTTCCCGGTAATCCGTATTTGCA (site AATTATGCTTG) | 1.85 |
| AATTATGCATGGACCGGTTTTCCCGGTAATCCGTATTTGCA (site AATTATGCTTT) | 0.00931 |
| AATTCTGCATGGACCGGTTTTCCCGGTAATCCGTATTTGGA (site AATTATGCTTC) | 0.384 |
| AATTCTGCATGGACCGGTTTTCCCGGTAATCCGTATTTGGA (site AATTCTGCTTC) | 0.349 |
| AATTCTGCATGGACCGGTTTTCCCGGTAATCCGTATTTGGA (site AATTGTGCTTC) | 0.0372 |
| AATTCTGCATGGACCGGTTTTCCCGGTAATCCGTATTTGGA (site AATTTTGCTTC) | 0.00758 |
| AATTGGACATGGACCGGTTTTCCCGGTAATCCGTATTTGAC (site AATTGGACTGT) | 1.21 |
